Series [1] deals with recombinant human BACE1 (Homo sapiens, UniProt P56817). Put plainly: β-Secretase (BACE1) enzyme inhibition FRET assay. The format is biochemical. Put shortly:
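FRET cleavage by rhBACE1 with substrate at 20 μM final, 60 min at room temperature. Time-resolved fluorescence read at Ex/Em 360/460 nm. IC50 obtained by non-linear regression.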

For series [2], the target named is Plasmepsin-2 (PM-2; Plm II) (Plasmodium falciparum (isolate HB3), UniProt P46925). Put plainly: Plasmepsin-2 enzyme inhibition assay. The format is biochemical. Put shortly:
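Enzymes activated in pH 4.5 citrate/DTT buffer, then assayed in 50 mM sodium acetate pH 4.7, 0.01% Tween-20. Compounds added before fluorogenic peptide substrate (final 20 µM); 60 min at room temperature, fluorescence Ex/Em 360/535 nm, IC50 by curve fit.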

The target of series [3] is Plasmepsin (PM-4; Plm IV) (Plasmodium falciparum (isolate 3D7), UniProt Q8IM16). Put plainly: Plasmepsin-4 enzyme inhibition assay. Particulars: Table 8. Type of series: biochemical. The protocol:
Plasmepsin-2 (PM-2; Plm II) and Plasmepsin (PM-4; Plm IV) expression and purification was performed following the published protocols (Istvan E S and Goldberg D E, 2005). The final purified protein was activated by diluting the protein to 0.3 mg/mL in activating buffer (0.1 M citrate pH 4.5, 0.1% Tween-20, 50 mM dithiothreitol) and incubated at room temperature for 40 min, then the activated enzyme was diluted in assay buffer (50 mM sodium acetate pH 4.7, 0.01% Tween-20). The enzymatic inhibition reaction was performed in 384 well plates with a total volume of 20 μl. 10 μl of diluted PM-2 or PM-4 enzyme was added to the 384-well plate except blank wells (blank wells add 10 μL of assay buffer) and 20 nL of serials of diluted 1000× compounds were added to the wells with 520 Echo® Liquid Handling System (Labcyte Inc.). 10 μL PM-2 peptide substrate (AnaSpec, Cat#, 62050) with assay buffer was then added to final concentration of 20 μM to start the reaction. After incubation the reaction at room temperature for 60 min, the fluorescence intensity at Ex/Em=360 nm/535 nm was measured using EnVision multilabel plate reader (Perkin-Elmer). The IC50 values were obtained using Graph Pad Prism 4 and are reported in Tables 8 and 9 below as PM-2 IC50 values.

Series [4] is described as follows: Plasma compound concentration in the in vivo efficacy study. Particulars: mice; for concentration at 1 h / concentration at 6 h / concentration at 24 h: NIH, mouse, plasma; for concentration at 1 h: 1 h post last dose on Day 3; for concentration at 6 h: 6 h post last dose on Day 3; for concentration at 24 h: 24 h post last dose on Day 3.
The subject of series [5] is HepG2 cells. As to the kind of experiment: HepG2 cytotoxicity assay. Type of series: cell-based. Particulars: Homo sapiens, 72 hours. The protocol: HepG2 cells (ATCC Cat. No. HB-8065) were maintained in DMEM supplemented with 10% fetal bovine serum and L-glutamine. Cells were grown at 37° C. and 5% CO2 on flasks coated with poly-d-lysine. To assess compounds for potential cytotoxic properties cells were plated at 10,000 cells per well on 96-well poly-d-lysine plates at 10,000 cells per well. HepG2 cells were allowed to adhere for at least 4 hours prior to application of test compounds. Cells were incubated with test compounds for 72 hours before measuring cellular viability. Cellular viability was measured using PrestoBlue® Cell Viability Reagent (Life Technologies). Briefly, 11 μL of 10× PrestoBlue reagent was added to 100 μl in each assay well. Cells were incubated at 37° C. and 5% CO2 for 30 minutes prior to reading on Tecan Safire2, excitation at 560 nm, 10 nm bandwidth and emission at 590 nm, 10 nm bandwidth. GraphPad Prism 5.0 (GraphPad Software, Inc., USA) was used to generate IC50 values via non-linear regression analysis.

For series [6], the target named is recombinant human Cathepsin E (Homo sapiens (Human), UniProt P14091). As to the kind of experiment: Cathepsin E enzyme inhibition FRET assay. The format is biochemical. Particulars: Table 8; read-out: CatE IC50. Here is the method:
The enzymatic inhibition activity assays were determined using the fluorescence resonance energy transfer (FRET) assay. The assays were performed in a 384-well plate format. […] The concentration of Cathepsin D was 20 ng/μL, and 1 ng/μL of Cathepsin E was used. CatD and CatE were activated by incubation in assay buffer (0.1 M NaOAc, 0.2 M NaCl, pH 3.5) at room temperature for 30 min. Subsequently, the rhBACE-1 substrate (R&D Systems, catalog# ES004), the Cathepsin D and Cathepsin E substrate (R&D Systems, Catalog # ES001) were added accordingly to final concentration 20 μM to initiate the reaction. After 60 min incubation at room temperature, the time-resolved fluorescence at Ex/Em=360 nm/460 nm was measured on an EnVision multilabel plate reader (Perkin-Elmer). The analytical software, GraphPad Prism 5.0 (GraphPad Software, Inc., USA) was used to generate IC50 values via non-linear regression analysis, which are reported in Tables 8-13 below as BACE1 IC50 values.

Like-named read-outs stand apart in the source and are kept apart here. Marks after values point to notes of the source that are not given here.

Sequence of recombinant human BACE1 (P56817 46-501 limits assumed): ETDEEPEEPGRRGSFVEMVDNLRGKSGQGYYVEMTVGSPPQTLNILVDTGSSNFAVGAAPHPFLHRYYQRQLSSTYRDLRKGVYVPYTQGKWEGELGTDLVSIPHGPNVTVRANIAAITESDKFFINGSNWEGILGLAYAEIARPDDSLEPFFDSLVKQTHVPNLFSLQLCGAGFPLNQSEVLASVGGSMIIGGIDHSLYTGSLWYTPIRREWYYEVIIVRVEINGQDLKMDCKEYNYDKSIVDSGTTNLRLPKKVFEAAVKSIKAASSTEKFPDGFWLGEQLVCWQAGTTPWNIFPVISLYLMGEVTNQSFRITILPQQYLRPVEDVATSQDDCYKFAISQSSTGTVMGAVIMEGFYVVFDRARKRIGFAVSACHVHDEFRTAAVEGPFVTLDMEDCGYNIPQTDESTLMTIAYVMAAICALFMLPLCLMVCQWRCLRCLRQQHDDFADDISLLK
Sequence of Plasmepsin-2 (PM-2; Plm II) (P46925 125-453 limits assumed): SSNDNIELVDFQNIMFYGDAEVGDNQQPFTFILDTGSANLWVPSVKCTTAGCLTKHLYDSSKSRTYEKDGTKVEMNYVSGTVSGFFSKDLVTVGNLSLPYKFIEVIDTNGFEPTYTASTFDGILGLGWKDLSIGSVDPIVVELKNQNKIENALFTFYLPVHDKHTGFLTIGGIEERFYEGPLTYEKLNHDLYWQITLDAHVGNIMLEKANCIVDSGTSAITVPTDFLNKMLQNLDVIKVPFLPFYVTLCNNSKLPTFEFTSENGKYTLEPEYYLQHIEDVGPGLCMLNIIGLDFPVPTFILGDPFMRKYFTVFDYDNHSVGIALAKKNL
Sequence of recombinant human Cathepsin E (P14091 54-396): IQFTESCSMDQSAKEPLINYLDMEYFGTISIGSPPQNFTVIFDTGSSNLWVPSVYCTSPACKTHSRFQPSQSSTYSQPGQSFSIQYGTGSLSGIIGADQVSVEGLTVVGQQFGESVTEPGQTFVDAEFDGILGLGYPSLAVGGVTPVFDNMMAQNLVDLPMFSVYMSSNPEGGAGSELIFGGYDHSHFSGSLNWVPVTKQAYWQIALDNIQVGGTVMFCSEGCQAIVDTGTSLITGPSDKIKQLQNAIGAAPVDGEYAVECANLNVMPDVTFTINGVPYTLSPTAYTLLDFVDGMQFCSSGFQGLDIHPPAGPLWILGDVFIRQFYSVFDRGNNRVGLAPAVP
Sequence of Plasmepsin (PM-4; Plm IV) (Q8IM16 122-449 limits assumed): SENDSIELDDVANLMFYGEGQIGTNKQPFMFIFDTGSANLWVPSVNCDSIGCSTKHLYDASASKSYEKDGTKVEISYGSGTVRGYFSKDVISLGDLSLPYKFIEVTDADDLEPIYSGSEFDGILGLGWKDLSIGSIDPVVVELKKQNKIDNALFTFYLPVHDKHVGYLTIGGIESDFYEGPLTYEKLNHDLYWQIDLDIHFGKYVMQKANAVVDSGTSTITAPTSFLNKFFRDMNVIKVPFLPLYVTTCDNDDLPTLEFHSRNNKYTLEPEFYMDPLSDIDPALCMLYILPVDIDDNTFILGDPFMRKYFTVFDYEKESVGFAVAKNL

Usually IC50 stands for the concentration needed to halve the response being measured. As to `COc1ccc(C2(c3ccc(OC)cc3)NC(=N)N(C3CCN(C(=O)OC(C)(C)C)CC3)C2=O)cc1` [Example 206, tert-butyl 4-[2-imino-4,4-bis(4-methoxyphenyl)-5-oxoimidazolidin-1-yl]piperidine-1-carboxylate], the IC50 in series [1] (Table 8, read-out: BACE IC50) is 6010 nM; in series [2] (Table 8, read-out: PM-II IC50), 2 nM; in series [2] (Table 13, read-out: PM-2 IC50) it was 2.76 nM; in series [3], 10 nM; in series [5] it was 8000 nM; in series [6], 233 nM. Besides, in series [4] (100 mg/kg, 100 mpk oral), the concentration at 1 h worked out at 2520 ng/mL. This compound also gave a concentration at 6 h in series [4] (100 mg/kg, 100 mpk oral) of 2190 ng/mL. Further, the concentration at 24 h in series [4] (100 mg/kg, 100 mpk oral) was determined as 7 ng/mL.

As for `COc1ccc(C2(c3ccc(OC)cc3)NC(=N)N(C3CCOCC3)C2=O)cc1` [Example 176, 2-imino-5,5-bis(4-methoxyphenyl)-3-(oxan-4-yl)-imidazolidin-4-one], the IC50 in series [1] (Table 8, read-out: BACE IC50) is about 10000 nM; in series [1] (Table 13, read-out: BACE1 IC50), about 10100 nM; in series [2] (Table 8, read-out: PM-II IC50), 7 nM; in series [2] (Table 13, read-out: PM-2 IC50), 6.81 nM; in series [3] it was 18 nM; in series [5] it was over 50000 nM. In series [6], the IC50 is 511 nM. The same compound had a concentration at 24 h in series [4] (110 mg/kg, 110 mpk oral) of 29 ng/mL. In series [4] (110 mpk oral, 30 min post last dose on Day 3), the “Plasma [compound] (ng/mL), determined at 30 min post dose” value is on record as 4140^e ng/mL.

On to `COc1ccc(C2(c3ccc(OC)cc3)NC(=N)N(CC3CCOCC3)C2=O)cc1` [Example 275, 2-imino-5,5-bis(4-methoxyphenyl)-3-(oxan-4-ylmethyl)imidazolidin-4-one], for which the 50% inhibitory concentration (IC50) was found to be 2070 nM in series [1] (Table 8, read-out: BACE IC50); 2070 nM in series [1] (Table 13, read-out: BACE1 IC50); 17 nM in series [2] (Table 8, read-out: PM-II IC50); 16.9 nM in series [2] (Table 13, read-out: PM-2 IC50); 59 nM in series [3]; 30000 nM in series [5]. In addition, in series [6], the IC50 is 841 nM. Besides, the concentration at 1 h in series [4] (100 mg/kg, 100 mpk oral) worked out at 10400 ng/mL. This compound registered a concentration at 6 h in series [4] (100 mg/kg, 100 mpk oral) of 3030 ng/mL. This compound came in with a concentration at 24 h in series [4] (100 mg/kg, 100 mpk oral) of 123 ng/mL.

Source of the values: patent publication US9353089B2, “Compositions and methods for the treatment of malaria” (Saint Louis University, priority 2013, dated 2016).
